Results on 24 compounds are retold here after patent EP0934065B1, “NOVEL CRYPTOPHYCIN DERIVATIVES AS ANTI-NEOPLASTIC AGENTS” (priority 1996, dated 1998).

In brackets after ≈: the same amount, converted by molar mass. Where a name gives a salt, the structure may show the parent alone. Read-outs that look alike come from different tables or passages of the source. Where only a bound is given, the exact number is not on record here.

Data set [1] in a line: physchem. In kind it is physicochemical. The conditions noted are these: for solubility: water.
A short description of data set [2]: physchem. The text has this:
Table 4. Solubility of cryptophycin glycinate 12 in various parenteral vehicles.

The subject of data set [3] is GC3 human colon carcinoma cells. Kind of data set: cells. In kind it is cell-based. The conditions noted are these: 72 hours incubation, MTT. How it is done:
Selected wells of a 96 well plate were seeded with GC3 human colon carcinoma cells ([…] cells in 100µl assay medium/well) twenty four hours prior to test compound addition. Cell free assay medium was added to other select wells of the 96 well plate. The assay medium (RPMI-1640 was the medium used; however, any medium that will allow the cells to survive would be acceptable) was supplemented with 10% dialyzed fetal bovine serum and 25 mM HEPES buffer.
The test compound was stored in an amber bottle prior to testing. Fresh dimethylsulfoxide stock solution (200µg/ml) was prepared immediately prior to preparation of test sample dilutions in phosphate-buffered saline (PBS). A dilution of 1:20 dimethylsulfoxide solution in PBS was prepared such that the final concentration was 10 µg/ml. Serial 1:3 dilutions using PBS (.5ml previous sample of 1ml PBS) were prepared. Falcon 2054 tubes were used for the assay.
A 10ul sample of each dilution of test compound was added in triplicate to wells of GC3 plates. The plates were incubated for 72 hours at about 37°C. A 10µl sample of stock […] salt ("MTT" 5 mg/ml in PBS) was added to each well. The plates were incubated for about an hour at 37°. The plates were centrifuged, media was decanted from the wells and 100µl acid-isopropanol (0.04 N HCl in isopropanol) was added to each well. The plate was read within one hour using a test wavelength of 570nm (SpectraMax reader).

The subject of data set [4] is A-10 rat aortic smooth muscle cells. Kind of data set: Immunofluorescence: effects on the cytoskeleton. In kind it is cell-based. The conditions noted are these: A-10 cells, 2µM cytochalasin B, 24 hours. As to the method: (§1) A-10 cells are grown to near-confluency on glass coverslips in BME/10% FBS. Compounds in PBS are added to the indicated final concentrations and cells are incubated for an additional 24 hours. For the staining of microtubules and intermediate filaments, the cells are fixed with cold methanol and incubated with PBS containing 10% calf serum to block nonspecific binding sites. Cells are then incubated at 37°C for 60 min. With either monoclonal anti-β-tubulin or with monoclonal anti-vimentin at dilutions recommended by the manufacturer. Bound primary antibodies are subsequently visualized by a 45 minute incubation with fluorescein-conjugated rabbit antimouse IgG. The coverslips are mounted on microscope slides and the fluorescence patterns are examined and photographed using a Zeiss Photomicroscope I11 equipped with epifluorescence optics for fluorescein. […] PBS containing 100nM TRITC-phalloidin is then added and the mixture is allowed to incubate for 45 min. At 37°C. The cells are washed rapidly with PBS before the coverslips are mounted and immediately photographed as described above.
After 24 hours, microtubules and vimentin intermediate filaments are visualized by indirect immunofluorescence and microfilaments are stained using TRITC-phalloidin. The morphological effects of each drug is examined. […]

Data set [5] concerns A-10 cells. Description: Effects on taxol-stabilized microtubules. In kind it is cell-based, rat. As to the method:
as §1
After 24 hours, microtubule organization is examined by immunofluorescence as described above. […] Similarly, microtubules pretreated with taxol are observed with cryptophycin treatment.

Data set [6] has as its system A-10 cells. Description: Reversibility of microtubule depolymerization. The conditions noted are these: 100nM vinblastine 24 hr. In kind it is cell-based, rat. How it is done:
as §1
The cells are then washed and incubated in drug-free medium for periods of 1 hour or 24 hours. […] Cells are visualized for microtubule state after treatment with a cryptophycin compound of this invention at either 1 hour or 24 hours after removal of the cryptophycin compounds.

[7] abbreviates: pH 8, room temperature, read-out: solubility value.

Take `COc1ccc(C[C@H]2NC(=O)/C=C/C[C@@H]([C@H](C)[C@@H](O)[C@@H](Cl)c3ccccc3)OC(=O)[C@H](CC(C)C)OC(=O)C(C)(C)CNC2=O)cc1Cl` [Compound 1, cryptophycin 55]: the “aqueous solubility over the pH range studied” value in the data set “physchem [1]” (aqueous pH 4-8, room temperature) is on record as “declined as the pH bacame basic”. Besides, the solubility (in general, the concentration that dissolves in the medium under given conditions) was roughly 50 µg/mL (≈ 70.9 µM) in “physchem [1]” (pH 4, water, pH of 4, read-out: aqueous solubility value) and 10 µg/mL (≈ 14.2 µM) in the data set “physchem [1]” (setting [7]). The Comparative solubilities entry in the data set “physchem [2]” (excipient 1: Propylene Glycol 15, Ethanol 10 %v/v, volume adjusted 0.05M acetate buffer, BQL = Below quantitation limit, approximately 0.001 mg/ml) is reported as “BQL”.
On to `COc1ccc(C[C@H]2NC(=O)/C=C/C[C@@H]([C@H](C)[C@@H](OC(=O)CN)[C@@H](Cl)c3ccccc3)OC(=O)[C@H](CC(C)C)OC(=O)C(C)(C)CNC2=O)cc1Cl` [Compound 12], for which the IC50 (as a rule, the concentration needed to halve the response being measured) in data set [3] (Homo sapiens, Colon carcinoma cell) worked out at 0.1 nM. For the same compound, the solubility was found to be 30 µg/mL (≈ 39.3 µM) in “physchem [1]” (setting [7]); 30 µg/mL (≈ 39.3 µM) in “physchem [2]” (0.05m acetate buffer, pH 4, aqueous buffer, Comparative solubilities, excipient 5: 0.05M Acetate buffer pH 4.0 100 %v/v); 1500 µg/mL (≈ 1970 µM) in the data set “physchem [2]” (emulphor el719 in acetate buffer, aqueous buffer, Comparative solubilities, excipient 4: Emulphor EL719 1 (w/v), volume adjusted 0.05M acetate buffer); 1290 µg/mL (≈ 1690 µM) in the data set “physchem [2]” (ethanol/acetate buffer, pH 4, organic solvent or mixture, Solubility in parenteral vehicle, vehicle 3: Ethanol 10 %v/v, 0.05M Acetate buffer pH 4.0 qs); 1990 µg/mL (≈ 2610 µM) in “physchem [2]” (ethanol/propylene glycol/acetate buffer, pH 4, organic solvent or mixture, Solubility in parenteral vehicle, vehicle 2: Ethanol 10, Propylene Glycol 10 %v/v, 0.05 M Acetate buffer pH 4.0 qs); 10300 µg/mL (≈ 13500 µM) in “physchem [2]” (ethanol/propylene glycol/acetate buffer, pH 4, organic solvent or mixture, Solubility in parenteral vehicle, vehicle 6: Ethanol 10, Propylene Glycol 25 %v/v, 0.05 M Acetate buffer pH 4.0 qs). For the same compound, the solubility in “physchem [2]” (ethanol/propylene glycol/acetate buffer, pH 4, organic solvent or mixture, Solubility in parenteral vehicle, vehicle 7: Ethanol 10, Propylene Glycol 15 %v/v, 0.05 M Acetate buffer pH 4.0 qs) was 4320 µg/mL (≈ 5660 µM); in “physchem [2]” (ethanol/propylene glycol/citrate buffer, pH 4, organic solvent or mixture, Solubility in parenteral vehicle, vehicle 1: Ethanol 10, Propylene Glycol 10 %v/v, 0.05 M Citrate buffer pH 4.0 qs) it was 110 µg/mL (≈ 144 µM); in the data set “physchem [2]” (polysorbate 80/acetate buffer, pH 4, Solubility in parenteral vehicle, vehicle 5: Polysorbate 80 0.5 (w/v), 0.05 M Acetate buffer pH 4.0 qs), 2210 µg/mL (≈ 2900 µM); in “physchem [2]” (polysorbate 80 in acetate buffer, aqueous buffer, Comparative solubilities, excipient 3: Polysorbate 80 1(w/v), volume adjusted 0.05M acetate buffer, BQL = Below quantitation limit, approximately 0.001 mg/ml), 1000 to 2000 µg/mL (≈ 1310 to 2620 µM); in the data set “physchem [2]” (propylene glycol/acetate buffer, pH 4, organic solvent or mixture, Solubility in parenteral vehicle, vehicle 4: Propylene Glycol 10 %v/v, 0.05 M Acetate buffer pH 4.0 qs) it was 1580 µg/mL (≈ 2070 µM); in “physchem [2]” (propylene glycol/ethanol/acetate buffer, organic solvent or mixture), greater than 2000 µg/mL. Further, the solubility in the data set “physchem [2]” (propylene glycol/peg 3000/acetate buffer, organic solvent or mixture) is greater than 2000 µg/mL.
In data set [3], `COc1ccc(CC2NC(=O)C=CCC(C(C)C(OC(=O)CCN)C(Cl)c3ccccc3)OC(=O)C(CC(C)C)OC(=O)C(C)(C)CNC2=O)cc1Cl` (stereo not shown) [Compound 14, Cryptophycin 55 b-alaninate hydrochloride salt] registered a half-maximal inhibitory concentration (IC50) of 21 nM.
With `COc1ccc(CC2NC(=O)C=CCC(C(C)C(OC(=O)C(C)N)C(Cl)c3ccccc3)OC(=O)C(CC(C)C)OC(=O)C(C)(C)CNC2=O)cc1Cl` (stereo not shown) [Compound 18, Cryptophycin 55 (L)-alaninate hydrochloride salt], in data set [3], the IC50 is 2.6 nM.
For the compound `COc1ccc(C[C@H]2NC(=O)/C=C/C[C@@H]([C@H](C)[C@@H](OC(=O)[C@@H](N)CCCCN)[C@@H](Cl)c3ccccc3)OC(=O)[C@H](CC(C)C)OC(=O)C(C)(C)CNC2=O)cc1Cl` [Compound 22, Cryptophycin 55 (L)-lysinate di-hydrochloride salt], in data set [3], the IC50 is 7.2 nM.
For the compound `COc1ccc(CC2NC(=O)C=CCC(C(C)C(OC(=O)C(N)CCCCN)C(Cl)c3ccccc3)OC(=O)C(CC(C)C)OC(=O)C(C)(C)CNC2=O)cc1Cl` (stereo not shown) [Compound 34, Cryptophycin 55 (D)-lysinate di-hydrochloride salt], in data set [3] (Table 2 of Example 94), it took 6.5 nM to reach half-maximal inhibition (IC50).
`COc1ccc(CC2NC(=O)C=CCC(C(C)C(OC(=O)[C@@H](N)CN)C(Cl)c3ccccc3)OC(=O)C(CC(C)C)OC(=O)C(C)(C)CNC2=O)cc1Cl` (stereo partly drawn) [Compound 44, Cryptophycin 55 (S)-2,3-diaminopropionate dihydrochloride salt] gave an IC50 in data set [3] (Table 2 of Example 94) of 28 nM.
In turn, `COc1ccc(CC2NC(=O)C=CCC(C(C)C(OC(=O)C(N)CO)C(Cl)c3ccccc3)OC(=O)C(CC(C)C)OC(=O)C(C)(C)CNC2=O)cc1Cl` (stereo not shown) [Compound 46, Cryptophycin 55 (L)-serinate hydrochloride salt] registered an IC50 in data set [3] (Table 2 of Example 94) of 50 nM.
On to `C=C1[C@@H](C)[C@H]2[C@H](Cc3ccccc3)NC(=O)[C@]23OC(=O)/C=C/[C@H](O)CCC[C@@H](C)C/C=C/[C@H]3[C@@H]1O` [Cytochalasin B, cytochalasin B], for which, in data set [4] (TRITC-phalloidin), the effect on microfilaments entry is recorded as “complete depolymerization of microfilaments”. Also, in data set [4] (indirect immunofluorescence), the “effect on distribution of microtubules and intermediate filaments” value is “did not affect the distribution of either microtubules or intermediate filaments”.
Take `CC(=O)O[C@H]1C(=O)[C@@]2(C)[C@H]([C@H](OC(=O)c3ccccc3)[C@]3(O)C[C@H](OC(=O)[C@H](O)[C@@H](NC(=O)c4ccccc4)c4ccccc4)C(C)=C1C3(C)C)[C@]1(OC(C)=O)CO[C@@H]1C[C@@H]2O` [Taxol, taxol]: the microtubule organization entry with A-10 cells [5] (10µM taxol, compared with control cells) was “extensively bundled”.
In the case of `CC[C@]1(O)C[C@@H]2CN(CCc3c([nH]c4ccccc34)[C@@](C(=O)OC)(c3cc4c(cc3OC)N(C)[C@H]3[C@@](O)(C(=O)OC)[C@H](OC(C)=O)[C@]5(CC)C=CCN6CC[C@]43[C@@H]65)C2)C1` [Vinblastine, vinblastine], the “microtubule repolymerization after removal of drug” value with A-10 cells [6] (then drug-free medium 1 hour) was “significant levels of microtubules”; with A-10 cells [6] (then drug-free medium 24 hours) it was “complete morphological recovery”. Also, in the data set with A-10 cells [5] (100nM vinblastine, 24 hours), the “microtubule depolymerization, non-pretreated cells” value was “complete depolymerization of microtubules”. In addition, the “microtubule depolymerization after pretreatment with taxol” value in the data set with A-10 cells [5] (3 hours 10µM taxol, then 100nM vinblastine, 24 hours) is listed as “pretreatment with taxol prevented microtubule depolymerization”.
For the compound “Cryptophycin 55 3,6,9-tioxadecanoate [Compound 48]”, the IC50 in data set [3] (Table 2 of Example 94) turned out to be 10 nM.
Compound “Cryptophycin 55 (2'-di-t-butylphosphatyl)phenylacetate [Compound 5]” returned an IC50 in data set [3] (Table 2 of Example 94) of 31 nM.
In turn, “Cryptophycin 55 (D)-aspartate hydrochloride salt [Compound 40]” displayed an IC50 in data set [3] (Table 2 of Example 94) of 2 nM.
Turning to “Cryptophycin 55 (L) -γ-glutamate hydrochloride salt [Compound 42]”, the concentration for half-maximal inhibition (IC50) in data set [3] (Table 2 of Example 94) came out at 15 nM.
For the compound “Cryptophycin 55 (L)-aspartate hydrochloride salt [Compound 38]”, in data set [3] (Table 2 of Example 94), the IC50 amounted to 1.6 nM.
Still for that read-out and setting: the result for “Cryptophycin 55 (L)-α-glutamate hydrochloride salt [Compound 36]” reads 2.8 nM.
Turning to “Cryptophycin 55 N-methylpyridinium acetate salt [Compound 8]”, the 50% inhibitory concentration (IC50) in data set [3] turned out to be 2.2 nM; in data set [3] (Table 2 of Example 94) it was 116 nM.
In data set [3] (Table 2 of Example 94), “Cryptophycin 55 N-t-Boc-3-(3-chloro-4-methoxyphenyl)-(D)-alaninate [Compound 9]” had an IC50 of 2.2 nM.
Consider “Cryptophycin 55 N-t-Boc-(D)-alaninate [Compound 19]”, for which half-maximal inhibition in data set [3] (Table 2 of Example 94) (IC50) required 0.1 nM.
Compound “Cryptophycin 55 N-t-Boc-glycinate [Compound 11]” came in with an IC50 in data set [3] (Table 2 of Example 94) of 6.8 nM.
“Cryptophycin 55 Na-Ne-di-t-Boc-(L)-lysinate [Compound 21]”: in data set [3] (Table 2 of Example 94), half-maximal inhibition (IC50) was put at 21 nM.
Compound “Cryptophycin 55 glycidylglycinate hydrochloride salt [Compound 47]” returned a half-maximal inhibitory concentration (IC50) in data set [3] (Table 2 of Example 94) of 2.5 nM.
Regarding “Cryptophycin 55 nicotinoate hydrochloride salt [Compound 7]”, the results for the IC50 in data set [3] and in data set [3] (Table 2 of Example 94) were 116 nM and 3.7 nM, respectively.
